“Also recorded” adds a separate entry of the source.
Tests used:
[1] = system: NHDF normal human dermal fibroblasts; experiment: in vitro; assay type: cell-based; settings: NHDF, read-out: Range of Average IC50 Values, NHDF
Protocol: (§1) In addition to the screening already discussed, several of the before-described compounds and chimeras were screened against several or all of a panel of ten to twenty-five cancerous cell lines as target cells and seven "normal" cell preparations. This screening utilized a sulforhodamine B cytotoxidity assay as discussed below.
(§2) IC50 values; i.e., the concentration of Compound required to kill one-half of the treated cells, were then calculated.
NHDF Normal human dermal fibroblasts

Chemical stability = assay type: physicochemical
φX174 Form I DNA = experiment: φX174 supercoiled DNA cleavage, agarose gel; assay type: biochemical; settings: for DNA cleavage potency: pH 8.5, 1000 and 100 μM
Protocol: The ethereal solution of Compound 40 produced by the LiAlH4 reduction of Compound 21 (39 mg, 0.10 mmol) was evaporated in vacuo to dryness and the residue dissolved in THF (4 mL) to give a 25 mM solution of Compound 40, assuming complete conversion of Compound 21. […]
Thus, a vial containing a 50 micromolar per base pair solution […] of the same buffer solution and 2.0 microliters of a 5.0 millimolar ethanol solution of Compound 40.
[…] A 2.0 microliter portion of glycerol loading buffer solution containing bromothymol blue indicator was added to each vial. A 10 microliter aliquot was then drawn from each. Gel electrophoresis analysis of the aliquots was performed using a 1.0 percent agarose gel with ethidium bromide run at 115 volts for 1 hour. DNA cleavage was indicated by the formation of nicked relaxed circular DNA (form II) or linearized DNA (form III), which was detected by visual inspection of the gel under 310 nanometer ultraviolet light using ethidium bromide.

cancer cell lines = experiment: cells; assay type: cell-based; settings: Average data obtained from 5~10 cell lines; read-out: IC50 (average)
Protocol: as §1
SULFORHODAMINE B CYTOTOXICITY ASSAY
a. Stock drug solutions were prepared by dissolving drug in the appropriate solvent (determined during chemical characterization studies) and sterile filtering the drug-solvent solution through a sterile 0.2μ filter unit. An aliquot was taken from each filtered drug solution and the O.D. was measured to determine the drug concentration.
f. Incubate (37° C., 5-10 percent CO2 in humidified incubator) plates for a total of 72 hours. Check plates at 24 hour intervals microscopically for signs of cytotoxicity.
as §2
All other cells or cell lines were obtained from the American Type Culture Collection (ATCC) (all except CHO cells are human or mouse cancer cell lines as described by the ATC).
Tables 1 and 2 herein below provide average IC50 data from five to all ten of the above cancer cells lines for fused ring enediyne compounds disclosed herein. Those tables provide a generic structure and a description of the R group of that generic structure for each compound. Compound numbers as noted hereinbefore are also provided. Table 3 contains data for two fused-ring enediyne compounds (Compounds 47 and 120) as well as data for six chimers. Table 4 contains cancer cell and noraml cell cytotoxicity data for one select fused ring enediyne, Compound 153 against a number of "normal" cell preparations and tumor cell lines. Table 5 contains cancer cell and normal cell cytotoxicity data for another fused ring enediyne, Compound 250 against a similar panel of cells.

[2] = system: Capan-1 pancreatic carcinoma cells; experiment: Sulforhodamine B cytotoxicity, Capan-1; assay type: cell-based; settings: Homo sapiens, CAPAN-1, Capan-1; read-out: IC50
Protocol: as §1, §2

SK-Mel-28 melanoma cells = experiment: Sulforhodamine B cytotoxicity, SK-Mel-28; assay type: cell-based; settings: Homo sapiens, SK-MEL-28, SK-Mel-28; read-out: IC50
Protocol: as §1, §2

[3] = system: HL-60 promyeocytic leukemia cells; experiment: Sulforhodamine B cytotoxicity, HL-60; assay type: cell-based; settings: Homo sapiens, HL-60, HL-60; read-out: IC50
Protocol: as §1, §2

[4] = system: MCF-7(ADR) breast carcinoma cells; experiment: Sulforhodamine B cytotoxicity, MCF-7/ADR; assay type: cell-based; settings: Homo sapiens, NCI/ADR-RES, Adriamycin resistant
Protocol: as §1, §2

[5] = system: MOLT-4 (Leukemia) cell line; experiment: cells; assay type: cell-based; settings: Homo sapiens, MOLT-4, Molt-4 leukemia cell line; read-out: IC50
Protocol: as §1, §2

[6] = 10 mM, pH 8.5, 48 hours, 37° C.

## N.N.[Cl][Pt][Cl] [Cis-Platin]
[1]; control drugs
  IC50: 50000 nM

## COC1=C(C(=O)O)[C@H](C)[C@@]23O[C@]24c2cc(O)c5c(c2N[C@H]3C#C/C=C\C#C[C@H]14)C(=O)c1c(O)ccc(O)c1C5=O [Dynemicin A]
[1]; Homo sapiens, control drugs
  IC50: 10 nM

## N[C@@H](Cc1ccc(N(CCCl)CCCl)cc1)C(=O)O [Melphelan]
[1]; Homo sapiens
  IC50: 100000 nM

## COc1ccc2c(c1)N(C(=O)Oc1ccccc1)[C@H]1C#C/C=C\C#C[C@]3(O)CCC[C@]14O[C@]243 (relative stereo) [Compound 41]
Chemical stability
  chemical stability: reasonable stability under neutral and basic conditions; also recorded: cyclized rapidly under acidic conditions
φX174 Form I DNA; 2 mM, pH 5.0
  DNA cleavage: also cleaved DNA
Cancer cell lines
  IC50: 20000 nM

## O=C(OCCS(=O)(=O)c1ccccc1)N1c2ccccc2[C@@]23O[C@]24CCC[C@H]3C#C/C=C\C#C[C@H]14 [(+)-45]
[2]
  IC50: 390 nM
SK-Mel-28 melanoma cells
  IC50: 6300 nM
[3]
  IC50: > 98 nM
[4]
  IC50: 780 nM
φX174 Form I DNA
  DNA cleavage potency: comparable potencies

## OC12CCCC3C#Cc4ccccc4C#CC1Nc1ccccc1C32O (stereo not drawn) [Compound 76b]
Chemical stability
  chemical stability: cyclized spontaneously at 25 °C in the presence of 1,4-cyclohexadiene
φX174 Form I DNA; [6]
  DNA cleavage: converted supercoiled .phi.X174 form I DNA

## COC12C#C/C=C\C#CC3N(C(=O)Oc4ccccc4)C4=CC(=O)C=CC45OC15C3(O)CCC2 (stereo not drawn) [Compound 62]
Chemical stability
  chemical stability: stable molecules
φX174 Form I DNA; 5 mM, pH 8.0, 24 hours
  DNA cleavage: diminished activity against DNA

## O=C(OCCS(=O)(=O)c1ccccc1)N1c2ccccc2[C@]23O[C@@]24CCC[C@@H]3C#C/C=C\C#C[C@@H]14 [(-)-45]
[2]
  IC50: 1600 nM
SK-Mel-28 melanoma cells
  IC50: 6300 nM
[3]
  IC50: 780 nM
[4]
  IC50: 1600 nM
[5]
  IC50: 100 nM
φX174 Form I DNA
  DNA cleavage potency: comparable potencies

## CN(Cc1cnc2nc(N)nc(N)c2n1)c1ccc(C(=O)N[C@@H](CCC(=O)O)C(=O)O)cc1 [Methotrexate]
[1]; Homo sapiens, control drugs
  IC50: 50000 nM

## CC(=O)O[C@H]1C(=O)[C@@]2(C)[C@H]([C@H](OC(=O)c3ccccc3)[C@]3(O)C[C@H](OC(=O)[C@H](O)[C@@H](NC(=O)c4ccccc4)c4ccccc4)C(C)=C1C3(C)C)[C@]1(OC(C)=O)CO[C@@H]1C[C@@H]2O [Taxol]
[1]; Homo sapiens, control drugs
  IC50: 10 nM

## OC12CCCC3C#Cc4cc5ccccc5cc4C#CC1Nc1ccccc1C32O (stereo not drawn) [Compound 87b]
Chemical stability
  chemical stability: stable in the presence of 1,4-cyclohexadiene, but cycloaromatized at elevated temperature (65° C., two hours)
φX174 Form I DNA; [6]
  DNA cleavage: converted supercoiled .phi.X174 form I DNA

## COC12C#C/C=C\C#CC3NC4=CC(=O)C=CC45OC15C3(O)CCC2 (stereo not drawn) [Compound 58]
Chemical stability
  chemical stability: stable molecules
φX174 Form I DNA; 5 mM, pH 8.0, 24 hours
  DNA cleavage: diminished activity against DNA

— patent US5281710A, “Dynemicin analogs: synthesis, methods of preparation and use” (The Scripps Research Institute, priority 1992, dated 1994)
